Experimental findings from the supplement of paper PMC4862054 are described below.

Molecules are shown by their SMILES.

The test system of assay [1] is MCF-10A. The note with it: 72 h. The essentials:
(§1)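 Two sequential readouts followed a 72 h incubation of breast cancer cell lines with compound at 5 concentrations in 10-fold steps over a compound-specific 10,000-fold range: CellTox Green fluorescence (485/520 nm) for cell death, then CellTiter-Glo luminescence, after 10 min at room temperature, for viability. Each plate was normalised to 0.1 % DMSO and a positive kill control. Dose-response curves were fitted for EC50, censored at the top concentration.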

Assay [2] concerns BT-549. The note with it: 72 h. Summed up:
as §1

Assay [3] relates to MDA-MB-231. The note with it: 72 h. The essentials: as §1
In assay [4] the test system is HCC1143. The note with it: 72 h. Summed up:
as §1

The subject of assay [5] is MDA-MB-468. The note with it: 72 h. The essentials: as §1
Assay [6] relates to MDA-MB-436. The following applies: 72 h. The essentials: as §1
Assay [7] deals with MFM-223. The note with it: 72 h. Summed up: as §1
The test system of assay [8] is CAL-51. The following applies: 72 h. Summed up:
as §1

In assay [9] the test system is BT-474. The following applies: 72 h. The essentials:
as §1

For assay [10], the system named is CAL-120. The note with it: 72 h. The essentials:
as §1

Assay [11] relates to SK-BR-3. The note with it: 72 h. Summed up: as §1
Assay [12] relates to Hs578T. The following applies: 72 h. The essentials:
as §1

Assay [13] has as its system DU-4475. The note with it: 72 h. Summed up:
as §1

Assay [14] concerns BT-549. As to the kind of experiment: normalised viability (% of control), CellTiter-Blue; higher = more viable cells (100 = DMSO, 0 = benzethonium chloride kill control). The following applies: incubation time: 72 h. Here is the method: (§2)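 DSRT, CellTiter-Blue viability, 72 h incubation. Signal is normalised to DMSO and benzethonium chloride controls. Value is the normalised response at dose 1.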
Background: The colour change of resazurin is a common sign of viable cells or microbes.

In assay [15] the test system is HCC1599. The assay is described as above. The note with it: incubation time: 72 h. Here is the method: as §2
Assay [16] deals with MDA-MB-231. The description is as above. The note with it: incubation time: 72 h. Here is the method:
as §2

For assay [17], the system named is HCC1143. The description is as above. The note with it: incubation time: 72 h. Here is the method: as §2
In assay [18] the test system is CAL-85-1. The assay is described as above. The following applies: incubation time: 72 h. Here is the method: as §2
In assay [19] the test system is MDA-MB-468. The description is as above. The note with it: incubation time: 72 h. Here is the method: as §2
Assay [20] relates to CAL-148. The assay is described as above. The following applies: incubation time: 72 h. Here is the method:
as §2

Assay [21] deals with HCC1937. The description is as above. The note with it: incubation time: 72 h. Here is the method:
as §2

Assay [22] relates to MDA-MB-436. The assay is described as above. The note with it: incubation time: 72 h. Here is the method:
as §2

Assay [23] deals with HDQ-P1. The assay is described as above. The note with it: incubation time: 72 h. Here is the method:
as §2

Assay [24] deals with MFM-223. The description is as above. The following applies: incubation time: 72 h. Here is the method: as §2
Assay [25] has as its system MDA-MB-453. The assay is described as above. The note with it: incubation time: 72 h. Here is the method: as §2
Assay [26] has as its system CAL-51. Described as above. The following applies: incubation time: 72 h. Here is the method: as §2
Assay [27] deals with BT-474. The assay is described as above. The following applies: incubation time: 72 h. Here is the method: as §2
The subject of assay [28] is DU-4475. The description is as above. The following applies: incubation time: 72 h. Here is the method: as §2
The subject of assay [29] is CAL-120. The description is as above. The note with it: incubation time: 72 h. Here is the method: as §2
The test system of assay [30] is SK-BR-3. The assay is described as above. The following applies: incubation time: 72 h. Here is the method:
as §2

The test system of assay [31] is Hs578T. The description is as above. The note with it: incubation time: 72 h. Here is the method: as §2

`CS(=O)(=O)N1CCN(Cc2cc3nc(-c4cccc5[nH]ncc45)nc(N4CCOCC4)c3s2)CC1` [Pictilisib]: the “EC50, CellTiter-Glo” value in [1] stood at 397 nM; in [2], 1410 nM; in assay [3], 2960 nM; in assay [4] it was 2600 nM; in assay [5], 3040 nM; in [6], 6050 nM. In addition, the “EC50, CellTiter-Glo” value in assay [7] came out at 1580 nM; in [8], 1230 nM; in assay [9] it was 1710 nM; in assay [10], 3150 nM; in assay [11], 253 nM; in assay [12], 1890 nM.

Consider `O=C(NC[C@H](O)CO)c1ccncc1Nc1ccc(I)cc1F` [Pimasertib], for which the “EC50, CellTiter-Glo” value came out at 12.9 nM in assay [1]; 737 nM in assay [3]; 8470 nM in assay [6]; 1950 nM in assay [7]; 46.2 nM in assay [8]; 456 nM in assay [9]. For the same compound, the “EC50, CellTiter-Glo” value in assay [13] was 21.8 nM; in assay [10], 356 nM; in assay [11], greater than 10000 nM; in assay [12], 5910 nM.

`c1cc(CN2CCCNCCNCCCNCC2)ccc1CN1CCCNCCNCCCNCC1` [Plerixafor]: the normalised viability in [14] (0.25 nM) was 86.8%; in [15] (0.25 nM) it was 107%; in assay [16] (0.25 nM), 93.8%; in assay [17] (0.25 nM) it was 90.9%; in assay [18] (0.25 nM), 84.2%; in assay [19] (0.25 nM), 96.5%. The normalised viability in assay [20] (0.25 nM) stood at 87.3%; in assay [21] (0.25 nM), 82.5%; in [22] (0.25 nM), 110%; in [23] (0.25 nM), 104%; in assay [24] (0.25 nM), 99%; in assay [25] (0.25 nM) it was 129%. Moreover, the normalised viability in [26] (0.25 nM) turned out to be 103%; in [27] (0.25 nM), 84%; in assay [28] (0.25 nM) it was 105%; in assay [29] (0.25 nM), 90%; in [30] (0.25 nM) it was 91.5%; in assay [31] (0.25 nM), 104%.

As to `C[C@]12C=CC(=O)C=C1CC[C@@H]1[C@@H]2[C@@H](O)C[C@@]2(C)[C@H]1CC[C@]2(O)C(=O)CO` [Prednisolone], the normalised viability in assay [14] (1 nM) turned out to be 101%; in assay [15] (1 nM), 118%; in assay [16] (1 nM), 105%; in assay [17] (1 nM), 95.1%; in [18] (1 nM), 97.7%; in assay [19] (1 nM), 109%. Moreover, the normalised viability in assay [20] (1 nM) came to 111%; in assay [21] (1 nM) it was 88.8%; in assay [22] (1 nM), 108%; in [23] (1 nM) it was 85.7%; in assay [24] (1 nM), 102%; in assay [25] (1 nM) it was 100%. For the same compound, the normalised viability in [26] (1 nM) is 104%; in [27] (1 nM), 117%; in assay [28] (1 nM), 95.6%; in assay [29] (1 nM), 83.5%; in assay [30] (1 nM), 130%; in [31] (1 nM) it was 122%. For the same compound, in assay [10], the “EC50, CellTiter-Glo” value was 99.1 nM.

Take `Cn1cc(CNCC2CCN(c3ncc(C(=O)NO)cn3)CC2)c2ccccc21` [Quisinostat]: the “EC50, CellTiter-Glo” value in [1] came out at 92.8 nM; in assay [2], 81.8 nM; in assay [3] it was 65.4 nM; in assay [4], 21.5 nM; in assay [5] it was 50.7 nM; in [6] it was 50.9 nM. Further, the “EC50, CellTiter-Glo” value in assay [7] was determined as 70.7 nM; in [8], 78.7 nM; in assay [9], 58.6 nM; in [13], 24 nM; in [10], 74.2 nM; in [11], 21.4 nM. Besides, the “EC50, CellTiter-Glo” value in assay [12] came out at 59.1 nM.

In the case of `CC(C)N(CCCNC(=O)Nc1ccc(C(C)(C)C)cc1)C[C@H]1O[C@@H](n2cc(Br)c3c(N)ncnc32)[C@H](O)[C@@H]1O` [SGC0946], the “EC50, CellTiter-Glo” value in assay [5] came out at 2470 nM.
